Source: patent US20120022143A1, “RNA Interference Mediated Inhibition of the Thymic Stromal Lymphopoietin (TSLP) Gene Expression Using Short Interfering Nucliec Acid (siNA)” (Merck Sharp & Dohme Corp, priority 2009, published 2012)
[invAb] = inverted abasic unit; d = 2'-deoxy (DNA); m = 2'-O-methyl; r = 2'-OH (RNA); f = 2'-fluoro

Key:
TSLP mRNA = test: Initial screening: TSLP mRNA knock-down by RT-PCR (Taqman) after RNAiMax transfection of NHLF cells; assay type: cell-based; details: 10 nM siNA, human NHLF cells, 24 hrs post-transfection, relative to non-targeting control, normalized to GAPDH; mean ± s.d. from 2 experiments
Experimental: (§1) All cells were obtained from ATCC (Manassas, Va.) unless otherwise indicated. Cells were grown and transfected under standard conditions, which are detailed below for each cell line.
NHLF (human; Lonza cat# CC-2512): Cells were cultured at 37° C. in the presence of 5% CO2 and grown Fibroblast Basal Medium (Lonza cat# CC-3β2) supplemented growth factors (provided with the kit) and 100 μg/mL of streptomycin and 100 U/mL penicillin.
(§2) All transfections were performed using RNAiMax (Invitrogen Cat# 13778-150) as per the manufacturer's instructions.
(§3) Both human and murine cell lines were transfected in the similar fashion. Cells were plated in all wells of a tissue-culture treated, 96-well plate at a final count of 5,000 cells/well in […], of appropriate culture media. Cells were cultured for 24 hours after plating at 37° C. in the presence of 5% CO2.
(§4) After 24 hours, complexes containing siNA and RNAiMax were created as follows: A solution of RNAiMax diluted 33-fold in OPTI-MEM was prepared. In parallel, solutions of the siNAs for testing were prepared to a final concentration of 120 nM in OPTI-MEM. After incubation of RNAiMax/OPTI-MEM solution at room temperature for 5 min, an equal volume of the siNA solution and the RNAiMax solution were added together for each of the siNAs.
(§5) This solution was incubated at room temperature for 20 minutes. After incubation, 20 uL of the solution was added to each of the relevant wells.
(§6) The final concentration of siNA in each well was 10 nM and the final volume of RNAiMax in each well was 0.3 ul.
(§7) The time of incubation with the RNAiMax-siNA complexes was 24 hours, unless otherwise indicated. There was no change in media between the transfection and harvesting of the cells unless otherwise indicated.
(§8) RNA was extracted from a 96-well plate using the TaqMan® Gene Expression Cells-to-CT™ Kit (Cat# 4399002) with a modified protocol. Briefly, a 60 uL (1 plate) or 110 uL (2 plates) of the Lysis Solution with DNase I was dispensed into each well of the Lysis Buffer Plate (twin.tec full skirt plate). The lysis buffer and stop plates were stored at 4° C. until the cells were washed.
(§9) The plate was spun at 1100 rpm for 5 minutes. The culture medium was aspirated and discarded from the wells of the culture plate. The lysis was performed automatically using a BioMek FX instrument and method. After the Biomek method was completed, the lysis plate was incubated for 2 min. at room temperature. The lysis plate can be stored for 2 hours at 4° C., or at −20° C. or −80° C. for two months.
(§10) Each well of the reverse transcription plate required 10 uL of 2× reverse transcriptase Buffer, luL of 20× reverse transcription enzyme and 2 uL of nuclease-free water. The reverse transcription master mix was prepared by mixing 2× reverse transcription buffer, 20× reverse transcription enzyme mix, and nuclease-free water. 13 uL of the reverse transcription master mix was dispensed into each well of the reverse transcription plate (semi-skirted). A separate reverse transcription plate was prepared for each cell plate. The plate was loaded onto a Biomek NX or Biomek FX Dual-96 and the Biomek method was run. The program is programmed to automatically added 7 uL of lysate from the cell lysis procedure described above into each well of the reverse transcription plate. The plate is sealed and spun on a centrifuge (1000 rpm for 30 seconds) to settle the contents to the bottom of the reverse transcription plate. The plate is placed in a thermocycler at 37° C. for 60 min, 95° C. for 5 min, and 4° C. until the plate is removed from the thermocycler. Upon removal, if not used immediately, the plate was frozen at −20° C.
A series of probes and primers were used to detect the various mRNA transcripts of the genes of TSLP, IL-8 and GAPDH in human cell lines. All the Taqman probes and primers for the experiments here-in described were supplied as pre-validated sets by Applied Biosystems, Inc. (see Table 2). […]

mTSLP mRNA = test: Initial screening: mouse TSLP mRNA knock-down by RT-PCR (Taqman) after RNAiMax transfection of NIH 3T3 cells; assay type: cell-based; details: 10 nM siNA, 24 hrs post-transfection, mean ± s.d., summary from 2 screens
Experimental: as §1
NIH 3T3 (murine; ATCC cat#CRL-1658): Cells were cultured at 37° C. in the presence of 5% CO2 and grown in Dulbecco's modified Eagle's medium (DMEM) with 4 mM L-glutamine adjusted to contain 1.5 g/L sodium bicarbonate and 4.5 g/L glucose and supplemented with fetal bovine serum at a final concentration of 10% and 100 μg/mL of streptomycin and 100 U/mL penicillin.
as §2, §3, §4, §5, §6, §7, §8, §9, §10
A series of probes and primers were used to detect the various mRNA transcripts of the genes of TSLP, IL-8 and GAPDH in human cell lines. […]

Row | Substance | % KD TSLP (TSLP mRNA) [%] | % KD mTSLP NIH3T3 (mTSLP mRNA)
1 | 25455-DC: siNA duplex: sense B AcAGAAGAGuuucuuAAcu TTB (SEQ ID NO: 93), antisense AGUuAAGAAAcucuucuGuUU (SEQ ID NO: 94) (sense ACAGAAGAGUUUCUUAACUTT; antisense AGUUAAGAAACUCUUCUGUUU; sense: DNA at AGT, 2'-fluoro at CU, [invAb] at 5' end, 3' end, backbone not given here; antisense: sugars from the 5' end rrrfmmmmmmfffffffmfmm, backbone not given here) | 79 ± 11.3 | 4.9 ± 26%
2 | 25440-DC: siNA duplex: sense B cucuGGuuuuuuAAAuGuA TTB (SEQ ID NO: 63), antisense UACAuuuAAAAAAccAGAGUU (SEQ ID NO: 64) (sense CUCUGGUUUUUUAAAUGUATT; antisense UACAUUUAAAAAACCAGAGUU; sense: DNA at AGT, 2'-fluoro at CU, [invAb] at 5' end, 3' end, backbone not given here; antisense: sugars from the 5' end rrrmfffmmmmmmffmmmmmm, backbone not given here) | 16 ± 20.1 | 1 ± 33.1%
3 | 25468-DC: siNA duplex: sense B uGcuGAAuAAAGuAAuucu TTB (SEQ ID NO: 119), antisense AGAAuuAcuuuAuucAGcAUU (SEQ ID NO: 120) (sense UGCUGAAUAAAGUAAUUCUTT; antisense AGAAUUACUUUAUUCAGCAUU; sense: DNA at AGT, 2'-fluoro at CU, [invAb] at 5' end, 3' end, backbone not given here; antisense: sugars from the 5' end rrrmffmffffmfffmmfmmm, backbone not given here) | 30 ± 12.9 | 32.2 ± 15.2%
4 | 25443-DC: siNA duplex: sense B GAGGAAGcuuAcAuuAcAu TTB (SEQ ID NO: 69), antisense AUGuAAuGuAAGcuuccucUU (SEQ ID NO: 70) (sense GAGGAAGCUUACAUUACAUTT; antisense AUGUAAUGUAAGCUUCCUCUU; sense: DNA at AGT, 2'-fluoro at CU, [invAb] at 5' end, 3' end, backbone not given here; antisense: sugars from the 5' end rrrfmmfmfmmmfffffffmm, backbone not given here) | 43 ± 12.1 | 16.7 ± 11.7%
5 | 25441-DC: siNA duplex: sense B GGucAGuuAuGucAAuGuu TTB (SEQ ID NO: 65), antisense AACAuuGAcAuAAcuGAccUU (SEQ ID NO: 66) (sense GGUCAGUUAUGUCAAUGUUTT; antisense AACAUUGACAUAACUGACCUU; sense: DNA at AGT, 2'-fluoro at CU, [invAb] at 5' end, 3' end, backbone not given here; antisense: sugars from the 5' end rrrmffmmfmfmmffmmffmm, backbone not given here) | 40 ± 16.2 | −13.4 ± 10^ %
6 | 25451-DC: siNA duplex: sense B uAAuuAcAGAAGAGuuucu TTB (SEQ ID NO: 85), antisense AGAAAcucuucuGuAAuuAUU (SEQ ID NO: 86) (sense UAAUUACAGAAGAGUUUCUTT; antisense AGAAACUCUUCUGUAAUUAUU; sense: DNA at AGT, 2'-fluoro at CU, [invAb] at 5' end, 3' end, backbone not given here; antisense: sugars from the 5' end rrrmmfffffffmfmmffmmm, backbone not given here) | 76 ± 16.4 | −37.4 ± 15.7%
7 | 25457-DC: siNA duplex: sense B cucAGGAAAuGGcAcAAGA TTB (SEQ ID NO: 97), antisense UCUuGuGccAuuuccuGAGUU (SEQ ID NO: 98) (sense CUCAGGAAAUGGCACAAGATT; antisense UCUUGUGCCAUUUCCUGAGUU; sense: DNA at AGT, 2'-fluoro at CU, [invAb] at 5' end, 3' end, backbone not given here; antisense: sugars from the 5' end rrrfmfmffmffffffmmmmm, backbone not given here) | 32 ± 2 | 81.5 ± 3.7%
8 | 25453-DC: siNA duplex: sense B AuuAcAGAAGAGuuucuuA TTB (SEQ ID NO: 89), antisense UAAGAAAcucuucuGuAAuUU (SEQ ID NO: 90) (sense AUUACAGAAGAGUUUCUUATT; antisense UAAGAAACUCUUCUGUAAUUU; sense: DNA at AGT, 2'-fluoro at CU, [invAb] at 5' end, 3' end, backbone not given here; antisense: sugars from the 5' end rrrmmmmfffffffmfmmfmm, backbone not given here) | 81 ± 10.5 | −8.6 ± 12.2%
9 | 25439-DC: siNA duplex: sense B cAcGuGGGAAuGcAcuGAu TTB (SEQ ID NO: 61), antisense AUCAGuGcAuucccAcGuGUU (SEQ ID NO: 62) (sense CACGUGGGAAUGCACUGAUTT; antisense AUCAGUGCAUUCCCACGUGUU; sense: DNA at AGT, 2'-fluoro at CU, [invAb] at 5' end, 3' end, backbone not given here; antisense: sugars from the 5' end rrrmmfrfmfffffmfmfrmm, backbone not given here) | 12 ± 36.7 | 16.8 ± 14.7%
10 | 25471-DC: siNA duplex: sense B AGuAGAAAAAAAAAuuAAA TTB (SEQ ID NO: 125), antisense UUUAAuuuuuuuuucuAcuUU (SEQ ID NO: 126) (sense AGUAGAAAAAAAAAUUAAATT; antisense UUUAAUUUUUUUUUCUACUUU; sense: sugars from the 5' end d2 f1 d11 f2 d5, [invAb] at 5' end, 3' end, backbone not given here; antisense: sugars from the 5' end rrrmmfffffffffffmffmm, backbone not given here) | 22 ± 17.1 | 6.1 ± 9.6%
11 | 25462-DC: siNA duplex: sense B GGGcuAAGuucGAGcAAAu TTB (SEQ ID NO: 107), antisense AUUuGcucGAAcuuAGcccUU (SEQ ID NO: 108) (sense GGGCUAAGUUCGAGCAAAUTT; antisense AUUUGCUCGAACUUAGCCCUU; sense: DNA at AGT, 2'-fluoro at CU, [invAb] at 5' end, 3' end, backbone not given here; antisense: sugars from the 5' end rrrfmfffmmmfffmmfffmm, backbone not given here) | 23 ± 16.4 | −9.5 ± 28.7%
